Measurements as given in the CheMixHub viscosity set.
Where “and” joins values, the source holds several entries; their conditions need not be identical. Identical values can stand only once.

Assay: xn = mol fraction of the nth substance listed

OC[C@H]1O[C@H](O[C@H]2[C@H](O)[C@@H](O)C(O)O[C@@H]2CO)[C@H](O)[C@@H](O)[C@@H]1O (stereo not given in full) + O
viscosity
Conditions | 293.15 K | 298.15 K | 303.15 K | 308.15 K | 313.15 K | 318.15 K
100 kPa, x1 = 0.0009465 | – | – | – | 0.759 mPa·s | – | 0.627 mPa·s
100 kPa, x1 = 0.000975 | – | 0.942 mPa·s | – | 0.763 mPa·s | – | 0.628 mPa·s
100 kPa, x1 = 0.001093 | – | 0.948 mPa·s | – | 0.765 mPa·s | – | 0.632 mPa·s
100 kPa, x1 = 0.001306 | – | 0.96 mPa·s | – | 0.773 mPa·s | – | 0.639 mPa·s
100 kPa, x1 = 0.00134 | – | 0.96 mPa·s | – | 0.776 mPa·s | – | 0.639 mPa·s
100 kPa, x1 = 0.001467 | – | 0.968 mPa·s | – | – | – | –
100 kPa, x1 = 0.00157 | – | 0.972 mPa·s | – | 0.786 mPa·s | – | 0.645 mPa·s
100 kPa, x1 = 0.001596 | – | 0.975 mPa·s | – | 0.785 mPa·s | – | 0.648 mPa·s
100 kPa, x1 = 0.001818 | – | 0.985 mPa·s | – | 0.794 mPa·s | – | 0.655 mPa·s
100 kPa, x1 = 0.002168 | – | – | – | 0.804 mPa·s | – | 0.667 mPa·s
100 kPa, x1 = 0.002215 | – | – | – | 0.81 mPa·s | – | 0.669 mPa·s
100 kPa, x1 = 0.002657 | – | 1.029 mPa·s | – | 0.827 mPa·s | – | 0.682 mPa·s
101 kPa, x1 = 0.0009 | 1.022 mPa·s | 0.9029 mPa·s | 0.8044 mPa·s | 0.7221 mPa·s | 0.6529 mPa·s | –
101 kPa, x1 = 0.00099 | 1.025 mPa·s | 0.9064 mPa·s | 0.8074 mPa·s | 0.724 mPa·s | 0.6549 mPa·s | –
101 kPa, x1 = 0.0011 | 1.03 mPa·s | 0.9093 mPa·s | 0.8099 mPa·s | 0.7266 mPa·s | 0.6564 mPa·s | –
101 kPa, x1 = 0.0012 | 1.033 mPa·s | 0.9119 mPa·s | 0.812 mPa·s | 0.7287 mPa·s | 0.6586 mPa·s | –
101 kPa, x1 = 0.0013 | 1.037 mPa·s and 1.041 mPa·s | 0.9159 mPa·s and 0.9193 mPa·s | 0.8144 mPa·s and 0.8178 mPa·s | 0.7315 mPa·s and 0.7341 mPa·s | 0.6606 mPa·s and 0.6619 mPa·s | –
101 kPa, x1 = 0.0014 | 1.045 mPa·s | 0.9231 mPa·s | 0.8202 mPa·s | 0.7362 mPa·s | 0.6645 mPa·s | –
101 kPa, x1 = 0.0015 | 1.05 mPa·s | 0.9262 mPa·s | 0.823 mPa·s | 0.7383 mPa·s | 0.6669 mPa·s | –
101 kPa, x1 = 0.0016 | 1.054 mPa·s | – | 0.8261 mPa·s | 0.7406 mPa·s | 0.6687 mPa·s | –
101 kPa, x1 = 0.0018 | 1.062 mPa·s | 0.9361 mPa·s | 0.833 mPa·s | 0.7449 mPa·s | 0.6724 mPa·s | –
101.3 kPa, x1 = 0.000724 | – | – | – | 0.751 mPa·s | – | –
101.3 kPa, x1 = 0.00107 | – | 0.948 mPa·s | – | 0.766 mPa·s | – | 0.633 mPa·s
101.3 kPa, x1 = 0.00143 | – | 0.964 mPa·s | – | 0.779 mPa·s | – | 0.643 mPa·s
101.3 kPa, x1 = 0.00179 | – | 0.984 mPa·s | – | 0.794 mPa·s | – | 0.655 mPa·s
101.3 kPa, x1 = 0.002146 | – | – | – | 0.809 mPa·s | – | –
101.3 kPa, x1 = 0.002501 | – | 1.019 mPa·s | – | 0.819 mPa·s | – | 0.678 mPa·s
101.3 kPa, x1 = 0.002851 | – | 1.037 mPa·s | – | 0.836 mPa·s | – | 0.688 mPa·s
101.3 kPa, x1 = 0.003177 | – | 1.053 mPa·s | – | 0.848 mPa·s | – | 0.698 mPa·s
